These results are taken from publication PMC5909473, “Isoform-selective activity-based profiling of ERK signaling” (Chemical Science, 2018).

Broadly, the IC50 is the concentration at which inhibition is half-maximal. High values mean weaker potency, low ones greater potency.

Test [1] has as its target T1, ERK1 (Homo sapiens, UniProt P27361). The experiment in a line: competitive ATP acyl phosphate activity-based profiling, SILAC LC-MS/MS in A549 lysate. More on the design: gene MAPK3; native endogenous ERK1 in A549 soluble proteome. Format: biochemical.
In test [2] the target is T2, ERK2 (Homo sapiens, UniProt P28482).
T2 construct: gene MAPK1; native endogenous ERK2 in lung cancer cell proteomes
The test is described as follows: competition of ATP acyl phosphate probe labelling by […] free ATP, SILAC LC-MS/MS. The test is classed as cell-based.

The target of test [3] is T1, ERK1. The test is described as above. The test is classed as cell-based. More on the design: gene MAPK3; native endogenous ERK1 in lung cancer cell proteomes.

T1 sequence (P27361 2-379): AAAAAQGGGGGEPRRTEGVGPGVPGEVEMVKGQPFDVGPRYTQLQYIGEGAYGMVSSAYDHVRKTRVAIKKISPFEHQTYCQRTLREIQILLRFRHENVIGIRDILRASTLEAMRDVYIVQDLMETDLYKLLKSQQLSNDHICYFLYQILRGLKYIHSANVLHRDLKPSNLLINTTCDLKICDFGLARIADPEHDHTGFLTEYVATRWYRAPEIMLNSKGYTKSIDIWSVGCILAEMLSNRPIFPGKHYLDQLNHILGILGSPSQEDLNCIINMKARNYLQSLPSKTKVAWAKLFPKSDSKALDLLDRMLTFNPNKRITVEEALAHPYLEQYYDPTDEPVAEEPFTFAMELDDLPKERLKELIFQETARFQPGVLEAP
T2 sequence (P28482 2-360): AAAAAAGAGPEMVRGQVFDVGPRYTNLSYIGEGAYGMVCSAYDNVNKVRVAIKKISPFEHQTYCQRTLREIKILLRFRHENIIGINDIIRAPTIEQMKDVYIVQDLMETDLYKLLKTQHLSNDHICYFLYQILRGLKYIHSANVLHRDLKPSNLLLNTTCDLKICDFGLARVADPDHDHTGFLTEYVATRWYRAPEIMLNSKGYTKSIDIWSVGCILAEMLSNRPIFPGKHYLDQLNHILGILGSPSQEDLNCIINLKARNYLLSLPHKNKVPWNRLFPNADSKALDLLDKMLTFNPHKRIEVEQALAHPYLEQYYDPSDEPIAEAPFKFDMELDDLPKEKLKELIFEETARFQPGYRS

Regarding `CC(C)Nc1cc(-c2c[nH]c(C(=O)N[C@H](CO)c3cccc(Cl)c3)c2)c(Cl)cn1` [BVD-523], the half-inhibitory concentration (IC50) in test [1] came out at 0.015 µM.

Consider `Nc1ncnc2c1ncn2[C@@H]1O[C@H](COP(=O)(O)OP(=O)(O)OP(=O)(O)O)[C@@H](O)[C@H]1O` [ATP], for which the “competition of ATP acyl phosphate probe labelling by 1 mM free ATP, SILAC LC-MS/” value in test [2] was “both ERK1 and ERK2 probe-modified peptides were highly competed with ATP treatment”; in test [3], “both ERK1 and ERK2 probe-modified peptides were highly competed with ATP treatment”.
